In PubChem BioAssay (NCI):
Several values for one entry are separate records, joined by “and”; a condition that tells them apart may be missing. Identical values can stand only once.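 Values below derive from 48-hour exposures of cells grown in 96-well plates, with endpoints linearly interpolated between the two concentrations bracketing the appropriate inhibition level. The concentration for 50% growth inhibition is given as GI50. The concentration for full growth arrest is given as TGI.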

How the values were obtained:
Experiment in all cases: inhibition of tumour cell growth, NCI panel, 48 h
SNB-19 CNS = test system: SNB-19 CNS
NCI-H460 lung = test system: NCI-H460 lung
MDA-MB-231 breast = test system: MDA-MB-231 breast
MALME-3M melanoma = test system: MALME-3M melanoma
ACHN renal = test system: ACHN renal
SK-MEL-28 melanoma = test system: SK-MEL-28 melanoma
PC-3 prostate = test system: PC-3 prostate
SNB-75 CNS = test system: SNB-75 CNS
HL-60(TB) leukemia = test system: HL-60(TB) leukemia
HCC-2998 colon = test system: HCC-2998 colon

Nc1nonc1-c1nc2cnccc2n1C1CC1
GI50 (SNB-19 CNS): 12 µM
TGI (SNB-19 CNS): > 25 µM
GI50 (NCI-H460 lung): 6.83 µM
TGI (NCI-H460 lung): > 25 µM
GI50 (MDA-MB-231 breast): 8.75 µM
TGI (MDA-MB-231 breast): > 25 µM
GI50 (MALME-3M melanoma): > 15.9 µM
TGI (MALME-3M melanoma): > 25 µM
GI50 (ACHN renal): 6.25 µM
TGI (ACHN renal): > 25 µM
GI50 (SK-MEL-28 melanoma): 8.47 µM
TGI (SK-MEL-28 melanoma): > 20.9 µM
GI50 (PC-3 prostate): 17.7 µM
TGI (PC-3 prostate): > 25 µM
GI50 (SNB-75 CNS): 3.02 µM
TGI (SNB-75 CNS): > 18.5 µM
GI50 (HL-60(TB) leukemia): 5.32 µM
TGI (HL-60(TB) leukemia): 14.6 µM
GI50 (HCC-2998 colon): 12.4 µM
TGI (HCC-2998 colon): > 25 µM

Cn1c(C(=O)c2ccncc2)cc2ccccc21
GI50 (SNB-19 CNS): > 100 µM
TGI (SNB-19 CNS): > 100 µM
GI50 (NCI-H460 lung): > 100 µM
TGI (NCI-H460 lung): > 100 µM
GI50 (MDA-MB-231 breast): 66.5 µM
TGI (MDA-MB-231 breast): > 100 µM
GI50 (MALME-3M melanoma): > 100 µM
TGI (MALME-3M melanoma): > 100 µM
GI50 (ACHN renal): > 100 µM
TGI (ACHN renal): > 100 µM
GI50 (SK-MEL-28 melanoma): > 100 µM
TGI (SK-MEL-28 melanoma): > 100 µM
GI50 (PC-3 prostate): 80.7 µM
TGI (PC-3 prostate): > 100 µM
GI50 (SNB-75 CNS): 85.6 µM
TGI (SNB-75 CNS): > 100 µM
GI50 (HL-60(TB) leukemia): 76.5 µM
TGI (HL-60(TB) leukemia): > 100 µM
GI50 (HCC-2998 colon): > 100 µM
TGI (HCC-2998 colon): > 100 µM

CC[n+]1oc(C(=O)c2ccc(Cl)cc2)c(-c2ccccc2)c1-c1ccccc1.[Cl][Fe]([Cl])([Cl])[Cl]
GI50 (SNB-19 CNS): > 100 µM
TGI (SNB-19 CNS): > 100 µM
GI50 (NCI-H460 lung): 43.2 µM
TGI (NCI-H460 lung): > 100 µM
GI50 (MDA-MB-231 breast): 36.5 µM
TGI (MDA-MB-231 breast): > 100 µM
GI50 (MALME-3M melanoma): 39.7 µM
TGI (MALME-3M melanoma): > 100 µM
GI50 (ACHN renal): 33.5 µM
TGI (ACHN renal): 99.3 µM
GI50 (SK-MEL-28 melanoma): 38 µM
TGI (SK-MEL-28 melanoma): > 100 µM
GI50 (PC-3 prostate): 31.4 µM
TGI (PC-3 prostate): > 100 µM
GI50 (SNB-75 CNS): 30.4 µM
TGI (SNB-75 CNS): > 100 µM
GI50 (HL-60(TB) leukemia): 83.6 µM
TGI (HL-60(TB) leukemia): > 100 µM
GI50 (HCC-2998 colon): 60.8 µM
TGI (HCC-2998 colon): > 100 µM

FC(F)(c1ccc2ncccc2c1)c1nnc2ccc(-c3ccncc3)nn12
GI50 (SNB-19 CNS): > 100 µM
TGI (SNB-19 CNS): > 100 µM
GI50 (NCI-H460 lung): > 100 µM
TGI (NCI-H460 lung): > 100 µM
GI50 (MDA-MB-231 breast): 31 µM
TGI (MDA-MB-231 breast): > 100 µM
GI50 (MALME-3M melanoma): > 100 µM
TGI (MALME-3M melanoma): > 100 µM
GI50 (ACHN renal): 50.2 µM
TGI (ACHN renal): > 100 µM
GI50 (SK-MEL-28 melanoma): > 100 µM
TGI (SK-MEL-28 melanoma): > 100 µM
GI50 (PC-3 prostate): 74.6 µM
TGI (PC-3 prostate): > 100 µM
GI50 (SNB-75 CNS): 19 µM
TGI (SNB-75 CNS): > 100 µM
GI50 (HL-60(TB) leukemia): > 100 µM
TGI (HL-60(TB) leukemia): > 100 µM
GI50 (HCC-2998 colon): > 100 µM
TGI (HCC-2998 colon): > 100 µM

COc1cc(F)c(F)c(Nc2ccc(I)cc2F)c1NS(=O)(=O)C1(C[C@H](O)CO)CC1
GI50 (SNB-19 CNS): 1.83 µM
TGI (SNB-19 CNS): > 10 µM
GI50 (NCI-H460 lung): 1.62 µM
TGI (NCI-H460 lung): > 10 µM
GI50 (MDA-MB-231 breast): 0.217 µM
TGI (MDA-MB-231 breast): > 9.46 µM
GI50 (MALME-3M melanoma): 0.0198 µM
TGI (MALME-3M melanoma): 0.22 µM
GI50 (ACHN renal): 0.897 µM
TGI (ACHN renal): > 10 µM
GI50 (SK-MEL-28 melanoma): 0.029 µM
TGI (SK-MEL-28 melanoma): 0.448 µM
GI50 (PC-3 prostate): > 6.75 µM
TGI (PC-3 prostate): > 10 µM
GI50 (SNB-75 CNS): 2.62 µM
TGI (SNB-75 CNS): > 10 µM
GI50 (HL-60(TB) leukemia): 0.0219 µM
TGI (HL-60(TB) leukemia): > 10 µM
GI50 (HCC-2998 colon): 0.0206 µM
TGI (HCC-2998 colon): > 4.24 µM

O=C(NOC[C@H](O)CO)c1ccc(F)c(F)c1Nc1ccc(I)cc1F
GI50 (SNB-19 CNS): 20.6 µM
TGI (SNB-19 CNS): > 100 µM
GI50 (NCI-H460 lung): 15 µM and > 3.36 µM
TGI (NCI-H460 lung): > 100 µM
GI50 (MDA-MB-231 breast): 0.16 µM and 0.0347 µM
TGI (MDA-MB-231 breast): 62.7 µM and > 10 µM
GI50 (MALME-3M melanoma): < 0.01 µM
TGI (MALME-3M melanoma): < 0.01 µM and 0.00323 µM
TGI (ACHN renal): > 100 µM
GI50 (SK-MEL-28 melanoma): < 0.01 µM and 0.00192 µM
GI50 (PC-3 prostate): 62.6 µM and > 10 µM
TGI (PC-3 prostate): > 100 µM
GI50 (SNB-75 CNS): 17.8 µM and > 10 µM
TGI (SNB-75 CNS): > 100 µM
GI50 (HL-60(TB) leukemia): < 0.01 µM and 0.0166 µM
TGI (HL-60(TB) leukemia): > 100 µM
TGI (HCC-2998 colon): 2.24 µM

CCCCCCCCCCCCCCCCCC1=NC(C)(C)CN1CC(C)O (configuration not stated)
GI50 (SNB-19 CNS): 7.08 µM
TGI (SNB-19 CNS): 31.5 µM
GI50 (NCI-H460 lung): 2.78 µM
TGI (NCI-H460 lung): 7.06 µM
GI50 (MDA-MB-231 breast): 2.02 µM
TGI (MDA-MB-231 breast): 4.37 µM
GI50 (MALME-3M melanoma): 17.1 µM
TGI (MALME-3M melanoma): 34.4 µM
GI50 (ACHN renal): 7.94 µM
TGI (ACHN renal): 21.9 µM
GI50 (SK-MEL-28 melanoma): 17.1 µM
TGI (SK-MEL-28 melanoma): 33.5 µM
GI50 (PC-3 prostate): 3.31 µM
TGI (PC-3 prostate): 10.8 µM
GI50 (SNB-75 CNS): 9.11 µM
TGI (SNB-75 CNS): 23.6 µM
GI50 (HL-60(TB) leukemia): 4.82 µM
TGI (HL-60(TB) leukemia): 24.8 µM
GI50 (HCC-2998 colon): 6.01 µM
TGI (HCC-2998 colon): 18.9 µM
